# Reference: US11434203B2, “8-hydroxyquinoline derivatives as diagnostic and therapeutic agents” (The General Hospital Corporation, priority 2015, dated 2022)
# pEC50: −log10 of the molar value. Like-named read-outs stand apart in the source and are kept apart here.
# How the values were obtained:
# [1] = target: T1, soluble Aβ oligomers (Human A 1-42) (Homo sapiens, UniProt P05067); assay: Aβ aggregation assay (bis-ANS): reversal of aggregation of soluble Aβ oligomers; format: biochemical; details: for EC50: Aβ oligomers induced with ZnSO4 (15 μM), bis-ANS fluorescence, compounds 0.1 to 120 μM for 30 min, pH 7.4, read-out: EC50 (μM), reversal of aggregation of soluble Aβ oligomers
# T1 construct: Human A 1-42 (China Peptide); purchased China Peptide
# T1 sequence (P05067 672-713): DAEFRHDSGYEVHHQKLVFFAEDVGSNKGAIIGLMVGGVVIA
# Source text: 4,4(′)-dianilino-1,1(′)-binaphthyl-5,5(′)-disulfonate (bis-ANS, Sigma) was used to assess whether compounds could reverse the aggregation of soluble A oligomers. (See, e.g., LeVine, H., 3rd, (2002) 4,4(′)-Dianilino-1,1(′)-binaphthyl-5,5(′)-disulfonate: report on non-beta-sheet conformers of Alzheimer's peptide beta(1-40), Arch Biochem Biophys 404, 106; Chen, W. T. et al., (2011) Distinct effects of Zn^2+, Cu^2+, Fe^3+, and Al^3+ on amyloid-beta stability, oligomerization, and aggregation: amyloid-beta destabilization promotes annular protofibril formation, J Biol Chem 286, 9646) Human A 1-42 (China Peptide) was dissolved in DMSO (Sigma) to a stock concentration of 1.5 mM. A ([…]) oligomers were induced with ZnSO4 (15 μM) at 26° C. for 30 min in a buffer (pH 7.4) containing Tris (50 mM), NaCl (150 mM) and bis-ANS (10 μM). Compounds (0.1 to 120 μM) dissolved in DMSO (Sigma) were added for 30 min. CQ and PBT2 were used as positive controls. Endpoint fluorescence (excitation=390 nm, emission=490 nm) was measured with a Flex Station (Molecular Devices) fluorescent plate reader. At each concentration, Aβ fluorescence was normalized to background fluorescence and then expressed as a percentage of vehicle treated control samples. […] Data represents the mean of at least 9 replicates from 3 experiments.
# SH-SY5Y cells = assay: Ionophore assay: cellular metal levels by ICP-MS; format: cell-based; details: 20 μM, 6 hours; for Cu uptake, fold increase than that of PBT2: FIG. 3; for Cu uptake compared to 8HQ: FIG. 1
# Experimental: Cells were maintained at 37° C. with 5% CO2 and passaged every 3-4 days. Compounds (10 mM) were solubilized in DMSO (Sigma). CQ and PBT2 were used as positive controls. Cells were treated with growth media supplemented with each compound ([…]) or vehicle for 6 hours. Cells were harvested and metal levels were measured with Inductively-Coupled Plasma Mass Spectrometry (Varian), as previously described. […] Data represents the mean and S.E.M. of at least 9 replicates from 3 experiments. A oneway ANVOA with Fisher's LSD test was used to determine statistical differences relative to control (Prism 6, Graphpad).
# Dashed line indicates control level. SH-SY5Y cells treated were treated with each compound (20 μM) for 6 hours and cellular metal levels were measured with ICP-MS.
# (§1) SH-SY5Y cells treated were treated with each compound (20 μM) for 6 hours and cellular metal levels were measured with ICP-MS. Dashed line indicates control level.
# as §1
# AD patients = details: pilot phase II clinical trial, cited from earlier work
# [2] = system: patients with Huntington's disease and patients with AD; details: phase II clinical trials; cited from earlier work
smiles,measurement,setting,value
"Oc1c(F)cc(Br)c2cccnc12 [Compound 13, 5-bromo-7-fluoro-8-hydroxyquinoline]",EC50,[1],3.5 µM
"CN(Cc1cn(CCF)nn1)Cc1ccc2c(Cl)cc(Cl)c(O)c2n1 [Compound 28, 5,7-dichloro-2-((((1-(2-fluoroethyl)-1H-1,2,3-triazol-4-yl)methyl)(methyl)amino)methyl)quinolin-8-ol]","Cu uptake, fold increase than that of PBT2",SH-SY5Y cells,10 fold
same,EC50,[1],2.3 µM
"Oc1c(I)cc(F)c2cccnc12 [Compound 17, 5-fluoro-7-iodo-8-hydroxyquinoline]",EC50,[1],2.5 µM
"Oc1c(Cl)cc(Cl)c2ccc(COCCF)nc12 [Compound 23, 5,7-dichloro-2-((2-fluoroethoxy)methyl)quinolin-8-ol]",EC50,[1],2.4 µM
"CN(Cc1cn(CCCCF)nn1)Cc1ccc2c(Cl)cc(Cl)c(O)c2n1 [Compound 30, 5,7-dichloro-2-((((1-(4-fluorobutyl)-1H-1,2,3-triazol-4-yl)methyl)(methyl)amino)methyl)quinolin-8-ol]","Cu uptake, fold increase than that of PBT2",SH-SY5Y cells,8 fold
same,EC50,[1],2.8 µM
Oc1ccccc1/N=C/c1ccc(F)cc1 [Compound 10],EC50,[1],15.4 µM
"Oc1c(Br)cc(F)c2cccnc12 [Compound 16, 7-bromo-5-fluoro-8-hydroxyquinoline]",EC50,[1],3.7 µM
"Oc1c(I)cc(Cl)c2cccnc12 [Clioquinol (CQ), 5-chloro-7-iodo-quinolin-8-ol]",EC50,[1],1.8 µM
same,rate of cognitive decline,AD patients; AD patients,attenuated
same,tolerability,AD patients,well tolerated
Oc1cccc2ccc(F)nc12 [Compound 5],Cu uptake compared to 8HQ,SH-SY5Y cells,inferior to 8HQ
same,pEC50,[1],< 3.92
"Oc1c(F)cc(I)c2cccnc12 [Compound 14, 7-fluoro-5-iodo-8-hydroxyquinoline]",EC50,[1],2.3 µM
"Oc1c(F)cc(Cl)c2cccnc12 [Compound 12, 5-chloro-7-fluoro-8-hydroxyquinoline]",EC50,[1],4.9 µM
"Oc1c(Cl)cc(Cl)c2ccc(COCCCCF)nc12 [Compound 24, 5,7-dichloro-2-((4-fluorobutoxy)methyl)quinolin-8-ol]",EC50,[1],2 µM
"CN(Cc1cn(CCCF)nn1)Cc1ccc2c(Cl)cc(Cl)c(O)c2n1 [Compound 29, 5,7-dichloro-2-((((1-(3-fluoropropyl)-1H-1,2,3-triazol-4-yl)methyl)(methyl)amino)methyl)quinolin-8-ol]","Cu uptake, fold increase than that of PBT2",SH-SY5Y cells,16 fold
same,EC50,[1],4.5 µM
"Oc1c(Cl)cc(F)c2cccnc12 [Compound 15, 7-chloro-5-fluoro-8-hydroxyquinoline]",EC50,[1],5.2 µM
Oc1cccc2cc(F)cnc12 [Compound 6],Cu uptake compared to 8HQ,SH-SY5Y cells,inferior to 8HQ
"CN(C)Cc1ccc2c(Cl)cc(Cl)c(O)c2n1 [PBT2, 5,7-Dichloro-2-((dimethylamino)methyl) 8-quinolinol, reference compound]",EC50,[1],2 µM
same,benefits in patients,[2],shown benefits
